Data set [1] in a line: Acute toxicity, liver and kidney histology. The following applies: mouse, in vivo. More on the design: species or system mice. From the text:
Liver and kidneys: Tissue was formalin fixed and paraffin embedded. Sections of 2-4 um thick were cut and a routine staining panel applied including: H&E, modified sirius, PAS and Masson trichome for both and additional PAS with silver for kidneys and PAS with diastase, iron, reticulin artisan and oxidised orcein for the livers. Livers were immunohistochemically stained, immunohistochemical evaluation on 3 μm thick sections was done using the CK7 antibody from Dako/Agilent, GA619 (clone OV-TL12/30) following the manufacturer's instructions. The staining took place on the Omnis from Agilent utilizing the EnVision Flex+ detection kit (GV800). The primary antibody was diluted using Antibody Diluent (Dako DM830) and were incubated for 20 minutes. The sections were counterstained with hematoxylin.

The subject of data set [2] is orthotopic GBM (U-87 MG-luc2 xenograft). The data set can be described thus: NIR fluorescence imaging of orthotopic GBM (dynamic imaging, TBR and MFI). The data set is classed as in vivo, mice. On the procedure: All experimental procedures in animals were carried out in accordance with the approval by The Animal Experiments Inspectorate, Denmark. 7-10-week-old female nude mice (strain: Rj:NMRI-Foxn1nu/nu, JANVIER LABS, France) were orthotopically xenografted with U-87 MG-luc2 cells. Prior to any surgical procedure, the animals were anesthetized with Hypnorm (0.315 mg/ml fentanyl, 10 mg/ml fluanisone)+Midazolam (5 mg/ml)+sterile water in the ratio 1:1:2 by subcutaneous injection of 0.01 ml/g body weight of the solution.
The orthotopic GBM tumor model was established by inoculation of 500.000 cells in 10 μL ice cold PBS in the right hemisphere (1.5 mm lateral and 0.5 mm posterior to the bregma at 2 mm depth) using a stereotaxic frame (KOPF INSTRUMENTS, Tujunga, Calif., USA) with the automated microinjection pump UMP3 (WPI, Sarasota, Fla., USA). The cells were injected over 5 min with the syringe kept in place for further 3 min before retraction. Tumor growth was subsequently monitored on MRI with the BioSpec 7T (Bruker, Billerica, Mass., USA) with axial and coronal T2-weighted sequences. When the tumor size reached 2-17 mm^3, the animals were included in the fluorescence imaging protocol.
All image acquisition was performed with the Fluobeam system with (Fluosoft version: 2.2.1) (Fluoptics, Grenoble, France). To characterize the in vivo biodistribution and tumor imaging properties, IRDye800-AE344 was administered through tail vein injection into all the GBM bearing mice (n=35) at four different doses: 1 nmol, 3 nmol, 6 nmol, and 12 nmol. Two mice were sacrificed for each time point and the brain was removed and cross sectioned through the tumor for imaging. […] Accordingly, image acquisition was performed at following time points after injection:
1 nmol: 0.5 h, 1 h, and 2 h
3 nmol: 1 h, 2 h, 3 h, and 5 h
6 nmol: 1 h, 3 h, 6 h, and 12 h
(§1) Images were analyzed and processed in ImageJ 1.52a, NIH, USA. Signal measurements were performed on the raw images generated by the Fluoptics system. Tumor signal was measured as a mean fluorescence intensity of the whole tumor and background signal was measured as the mean of a representative area with no tumor on the contralateral hemisphere. Presented pictures are contrast enhanced in ImageJ with the Contrast Enhancement (Saturated pixels: 0.3%).
Pathological assessment was used to evaluate the colocalization of the fluorescence signal and cancer cells (sens+spec). The cross sectioned brain specimens from the fluorescence imaging were either paraffin embedded for H&E and IHC staining, or cryostat sectioned for fluorescence microscopy. […]
Cryostat sectioning was performed by fixation of the specimen in Tissue-Tek O.C.T. on dry ice. The fixed tissue was sliced axially and mounted on slides for immediate fluorescence imaging.

Another data set relates to orthotopic GBM. Briefly: Fluorescence-guided resection. Conditions: 6 nmol at 3 h, EleVision IR system. The data set is classed as in vivo, mouse. The protocol: Preoperatively, the tumor was visible on WL and NIR images (FIG. 15 upper panel). The surgeon performed the resection only assisted by WL until the surgeon considered all tumor tissues was removed. […] A video of fluorescence-guided surgery is also available in the online supplementary materials.
As should be understood from above, in FIG. 15 there is shown fluorescence-guided surgery (6 nmol IRDye800CW-AE344 at 3 h) performed with the EleVision™ IR system. Upper panel: Images were acquired prior to surgery. Middle panel: Pictures were acquired following surgery in white light and clearly visualizes remaining tumor tissue. The signal is more intense compared to upper panel and is due to the fact that the remaining tumor is now more exposed.

The target in data set [3] is T1, uPAR (Homo sapiens, UniProt Q03405). Briefly: In vivo binding specificity (competitive blocking, scrambled probe). More on the design: endogenous in cells; species or system mice. Conditions: 3 nmol, 1 h; for signal intensity compared to the active probe: orthotopic GBM. On the procedure:
The target specificity to uPAR was evaluated by two different methods: competitive blocking with the uPAR targeting peptide AE120 ((DChaFsrYLWSG)2-βAK) and IRDye800 conjugated to a scrambled peptide, AE354 (IRDye800CW-Glu-Glu-NH—CH2—CH2—O—CH2—CH2—O—CH2—CO—NH—CH2—CH2—O—CH2—CH2—O—CH2—CO-Asp-Cha-Glu-(D)Ser-(D)Arg-Tyr-Leu-Glu-Ser-OH) with similar peptide length as the active peptide. The competitive blocking dose of 1.4-2.8 mg AE120 was injected intraperitoneally 15-30 min prior to intravenous injection of 3 nmol IRDye800CW-AE344 and imaged at 1 h (n=5). The scrambled peptide was administered at 3 nmol and the animals were imaged after 1 h (n=4).
as §1
Target sequence in this assay (Q03405 23-305): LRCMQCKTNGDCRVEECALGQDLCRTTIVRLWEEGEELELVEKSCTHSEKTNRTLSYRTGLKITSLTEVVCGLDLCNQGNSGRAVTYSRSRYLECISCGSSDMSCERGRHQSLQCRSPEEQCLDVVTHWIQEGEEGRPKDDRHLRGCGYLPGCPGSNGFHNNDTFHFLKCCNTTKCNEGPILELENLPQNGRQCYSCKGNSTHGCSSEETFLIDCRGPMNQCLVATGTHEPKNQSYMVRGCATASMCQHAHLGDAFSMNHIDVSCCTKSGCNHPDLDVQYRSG

Data set [4] is described as follows: Photostability under continuous laser exposure. The format is physicochemical. The protocol: The photostability was evaluated by a factor 2 dilution series with four samples from 0.23-1.8 nM IRDye800-AE344 in 100 μL phosphate buffered saline (PBS) placed in a black 96-well plate. The well was placed in a black box with the Fluobeam mounted in the top at a distance of 23 cm from the well plate. Image acquisition was performed at 0 min, 10 min, 15 min, 20 min, 0.5 h, 1 h, 2 h, 3 h, 6 h, 10 h, 15 h, 24 h. Each dilution sample was normalized to time point 0 and the data from all four samples were pooled.

For data set [5], the target named is T1, uPAR. Briefly: SPR inhibition of uPAR wt binding to immobilized pro-uPA. The following applies: inhibition of uPAR binding to immobilized pro-uPA S356A, 20° C. The protocol:
Covalent immobilization of purified human prouPA^S356A—was accomplished by injecting 12.5 μg/ml protein dissolved in 10 mM sodium acetate (pH 5.0) over a CM5 chip that had been pre-activated with NHS/EDC (N-ethyl-N′[3-[…])propyl]-carbodiimide), aiming at a surface density of >5000 resonance units (RU) corresponding to 100 fmols/mm^2. After coupling the sensorchip was deactivated with 1 M ethanolamine. Binding of purified human uPAR as analyte was measured from 4 nM to 0.25 nM at 20° C. using 10 mM HEPES, 150 mM NaCl, 3 mM EDTA (pH 7.4) containing 0.05% (v/v) surfactant P20 as running buffer at a flow rate of 50 μl/min. […]
Surface plasmon resonance (SPR) was applied to determine the IC50-value of IRDye800-AE344 on the uPAR·uPA interaction in solution using a Biacore 3000 instrument essentially as described. […] A standard curve was measured in parallel (2-fold dilution of uPAR covering 0.06 nM to 2 nM) including one repeated concentration point at the end to validate the biological integrity of the sensor chip. […] The parent nonamer peptide antagonist AE105 (Asp-Cha-Phe-D-Ser-D-Arg-Tyr-Leu-Trp-Ser-OH) was analyzed in parallel as positive control and the closed uPAR^H47C-N259C was used as negative control as its uPA binding cavity cannot accommodate AE105.
Target sequence in this assay (Q03405 23-305 limits assumed): as the sequence (Q03405 23-305) above

Primed or numbered codes have the meaning given here. [ ]: non-standard residue; d: D form. Cha = N[C@@H](CC1CCCCC1)C(=O)O; IRDye800CW′ = not defined here; AEEA = NCCOCCOCC(=O)O

On to `CC(C)C[C@H](NC(=O)[C@H](Cc1ccc(O)cc1)NC(=O)[C@@H](CCCNC(=N)N)NC(=O)[C@@H](CO)NC(=O)[C@H](Cc1ccccc1)NC(=O)[C@H](CC1CCCCC1)NC(=O)[C@H](CC(=O)O)NC(=O)COCCOCCNC(=O)COCCOCCNC(=O)[C@H](CCC(=O)O)NC(=O)[C@H](CCC(=O)O)NC(=O)CCCCC[N+]1=C(/C=C/C2=C(Oc3ccc(S(=O)(=O)O)cc3)C(=C/C=C3/N(CCCCS(=O)(=O)[O-])c4ccc(S(=O)(=O)O)cc4C3(C)C)/CCC2)C(C)(C)c2cc(S(=O)(=O)O)ccc21)C(=O)N[C@@H](Cc1c[nH]c2ccccc12)C(=O)N[C@@H](CO)C(=O)O` [IRDye800CW-AE344, IRDye800CW-Glu-Glu-O2Oc-O2Oc-Asp-Cha-Phe-D-Ser-D-Arg-Tyr-Leu-Trp-Ser-OH], for which the “pathological assessment of the kidneys and the liver” value in data set [1] was “no pathological findings”. The “background MFI” value came to 24 a.u in data set [2] (6 nmol, 1 h) and 11 a.u in data set [2] (6 nmol, 3 h). Moreover, in data set [2] (6 nmol, from 1 h to 3 h), the “decrease in background MFI” value was determined as 54%. Besides, in data set [2] (in vivo cancer imaging), the “visualization of orthotopic GBM through intact brain on NIR imaging” value was “clearly visualized”. Besides, the “outcome of fluorescence-guided surgery” value with orthotopic GBM was “complete tumor resection”. Further, the figures for the “normalized TBR (ref: active probe)” value on uPAR [3] (blocked with AE120) and at uPAR [3] (probe alone) were 0.70 and 1.00, respectively. For the same molecule, the “tumor-to-background ratio (TBR)” value at uPAR [3] (blocked with AE120) is listed as 4.6; on uPAR [3] (probe alone) it was 6.6. In addition, at uPAR [3] (competitive blocking with AE120), the “signal intensity compared to the active probe” value is given as “lower signal intensity”. For the same molecule, the preserved fluorescence intensity was determined as 84% in data set [4] (after continuous laser exposure for 1 h) and 62% in data set [4] (after continuous laser exposure for 2 h).
The term IC50 denotes the point on the concentration scale where inhibition reaches its midpoint. High values mean lower potency, low ones higher potency. Consider EE-O2Oc-O2Oc-DChaFsrYLWS-NH2 [AE347], for which, at uPAR [5], the IC50 came out at 5.7 ± 0.5 nM.
Consider “IRDye800CW-Glu-Glu-NH—CH2—CH2—O—CH2—CH2—O—CH2—CO—NH—CH2—CH2—O—CH2—CH2—O—CH2—CO-Asp-Cha-Glu-(D)Ser-(D)Arg-Tyr-Leu-Glu-Ser-OH ({IRDye800CW′}-EE[AEEA][AEEA]D[Cha]E[dS][dR]YLES-OH) [IRDye800CW-AE354, reference compound]”, for which, in the data set with uPAR [3] (probe alone), the “normalized TBR values (FIG. 16C)” value stood at 3.4 and the “signal intensity compared to the active probe” value is listed as “lower signal intensity”.

(Values after US20220401585A1, “A UROKINASE PLASMINOGEN ACTIVATOR RECEPTOR-TARGETING PEPTIDE” (RIGSHOSPITALET, priority 2019, published 2022).)
